Read-outs that look alike come from different tables or passages of the source. Where a SMILES comes first, the peptide text is derived from it.

Experimental findings from publication PMC8294059, “Identification and Immune Assessment of T Cell Epitopes in Five Plasmodium falciparum Blood Stage Antigens to Facilitate Vaccine Candidate Selection and Optimization” (Frontiers in Immunology, 2021) are described below.

The target of this assay is HLA-A*2402 (Homo sapiens, UniProt P04439, D101N/D140Y/D185E/E176V/E190D/F33S/G103R/G107R/I119L/I121M/I306V/K335N/L105A/L180Q/L300P/N151K/N90K/Q86E/Q94H/R106L/R138H/R89G/T104I/T345S/V100E/W191G/Y123F). In words: In vitro class I HLA binding assay (fluorescence polarization competition). As to conditions: allele A*2402. The essentials:
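Cell-free competition assay: HLA heat-treated 53°C for 15 min to strip endogenous peptides, then mixed with fluorescent high-affinity control peptide and test peptides for 72 h to equilibrium. Displacement read by fluorescence polarization as percent inhibition; IC50 derived from a concentration range.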
In general terms: Polarisation of emitted light reports the rotation of a fluorescent probe.

[1] abbreviates: fluorescence polarization competition, read-out: IC50 (nM), in vitro HLA binding affinity.
Setting [2] is: cell-free competition, fluorescence polarization at 72 hours, Non-binder = no dose-dependent inhibition, read-out: IC50.

What is called IC50 is the midpoint of a concentration-inhibition curve. In the case of `CC[C@H](C)[C@H](NC(=O)[C@H](Cc1ccccc1)NC(=O)[C@H](CC(C)C)NC(=O)[C@H](Cc1ccc(O)cc1)NC(=O)[C@@H](N)CCCCN)C(=O)N1CCC[C@H]1C(=O)N[C@@H](CO)C(=O)N[C@@H](Cc1c[nH]cn1)C(=O)N[C@@H](CC(N)=O)C(=O)O` [RH5_096] (H-KYLFIPSHN-OH), under setting [1], the IC50 worked out at 6120 nM.

Turning to `CC(C)C[C@H](NC(=O)[C@H](CCCCN)NC(=O)[C@H](CCCCN)NC(=O)[C@H](CC(=O)O)NC(=O)[C@H](Cc1ccc(O)cc1)NC(=O)[C@H](CC(C)C)NC(=O)[C@H](CC(N)=O)NC(=O)[C@H](Cc1ccc(O)cc1)NC(=O)[C@@H](N)CCCNC(=N)N)C(=O)O` [EBA175_1316] (H-RYNLYDKKL-OH), under setting [2], the half-maximal inhibitory concentration (IC50) amounted to 172 nM. As to GYNWGNYNTE [AMA1_396], the “IC50 (nM), in vitro HLA binding affinity” value (fluorescence polarization competition) is recorded as “Non-binder”. `CC[C@H](C)[C@H](NC(=O)[C@H](CC(=O)O)NC(=O)[C@@H](N)CCC(=O)O)C(=O)N1CCC[C@H]1C(=O)N[C@@H](Cc1c[nH]cn1)C(=O)N[C@H](C(=O)N[C@@H](CC(N)=O)C(=O)N[C@@H](CCC(=O)O)C(=O)N[C@@H](Cc1ccccc1)C(=O)O)C(C)C` [AMA1_321] (H-EDIPHVNEF-OH): the IC50 under setting [1] is 83000 nM.

For the molecule `CC[C@H](C)[C@H](N)C(=O)N[C@@H](CCCCN)C(=O)N[C@@H](CC(C)C)C(=O)N[C@@H](CC(N)=O)C(=O)N[C@H](C(=O)N[C@@H](Cc1c[nH]c2ccccc12)C(=O)N[C@@H](CCCNC(=N)N)C(=O)N[C@H](C(=O)N[C@@H](Cc1ccccc1)C(=O)O)[C@@H](C)O)[C@@H](C)CC` [RH5_442] (H-IKLNIWRTF-OH), the IC50 under setting [1] is 1420 nM. With `CC[C@H](C)[C@H](N)C(=O)N[C@@H](Cc1ccc(O)cc1)C(=O)N[C@@H](CCCCN)C(=O)N[C@@H](CCCNC(=N)N)C(=O)N[C@@H](CCC(=O)O)C(=O)N[C@@H](CC(C)C)C(=O)N[C@@H](Cc1ccc(O)cc1)C(=O)N[C@@H](CC(N)=O)C(=O)N[C@H](C(=O)O)[C@@H](C)CC` [CYRPA_055] (H-IYKRELYNI-OH), the IC50 under setting [1] worked out at 86.8 nM. The same measure, in the same setting: next, `CC(C)[C@H](NC(=O)[C@H](CCCNC(=N)N)NC(=O)[C@H](Cc1ccc(O)cc1)NC(=O)[C@H](CS)NC(=O)[C@H](CO)NC(=O)[C@@H](NC(=O)[C@H](Cc1ccc(O)cc1)NC(=O)[C@H](C)N)C(C)C)C(=O)N[C@@H](CO)C(=O)N[C@@H](Cc1ccccc1)C(=O)O` [RIPR_0412] (H-AYVSCYRVSF-OH): 56.9 nM. The same measure, in the same setting: as for `CC[C@H](C)[C@H](N)C(=O)N[C@@H](Cc1ccccc1)C(=O)N[C@@H](Cc1c[nH]cn1)C(=O)N[C@@H](Cc1c[nH]cn1)C(=O)N[C@@H](CC(C)C)C(=O)N[C@H](C(=O)N[C@@H](Cc1ccc(O)cc1)C(=O)N[C@H](C(=O)N[C@@H](CC(C)C)C(=O)O)C(C)C)[C@@H](C)CC` [RH5_493] (H-IFHHLIYVL-OH), the figure is 9590 nM; as for `CC[C@H](C)[C@H](NC(=O)[C@H](CCC(=O)O)NC(=O)[C@H](CCC(=O)O)NC(=O)[C@H](CO)NC(=O)[C@@H](NC(=O)[C@H](CC(=O)O)NC(=O)[C@H](Cc1ccc(O)cc1)NC(=O)[C@H](CCCNC(=N)N)NC(=O)[C@H](Cc1ccc(O)cc1)NC(=O)[C@@H](N)CO)[C@@H](C)CC)C(=O)O` [RH5_251] (H-SYRYDISEEI-OH), 363 nM; as for `CC[C@H](C)[C@H](NC(=O)[C@H](CC(=O)O)NC(=O)[C@H](C)NC(=O)[C@H](Cc1ccc(O)cc1)NC(=O)[C@H](CCC(=O)O)NC(=O)[C@H](CC(=O)O)NC(=O)[C@H](CCCCN)NC(=O)[C@H](Cc1ccc(O)cc1)NC(=O)[C@@H](N)CCC(=O)O)C(=O)O` [AMA1_527] (H-EYKDEYADI-OH), 2100 nM.

In the case of `CC[C@H](C)[C@H](N)C(=O)N[C@@H](Cc1c[nH]c2ccccc12)C(=O)N[C@@H](CCCNC(=N)N)C(=O)N[C@H](C(=O)N[C@@H](Cc1ccccc1)C(=O)N[C@@H](CCC(N)=O)C(=O)N[C@@H](CCCCN)C(=O)N[C@@H](CC(=O)O)C(=O)N[C@@H](CCC(=O)O)C(=O)N[C@@H](CC(C)C)C(=O)O)[C@@H](C)O` [RH5_446] (H-IWRTFQKDEL-OH), the IC50 under setting [1] was 625 nM. In the case of `CC[C@H](C)[C@H](NC(=O)[C@H](CO)NC(=O)[C@H](CC(N)=O)NC(=O)[C@H](Cc1ccc(O)cc1)NC(=O)[C@@H](N)CO)C(=O)N[C@@H](Cc1ccc(O)cc1)C(=O)N[C@@H](Cc1c[nH]cn1)C(=O)N[C@@H](CCCCN)C(=O)N[C@@H](CO)C(=O)O` [RH5_189] (H-SYNSIYHKS-OH), under setting [1], the IC50 was 57700 nM. With `CC[C@H](C)[C@H](NC(=O)[C@H](CCCCN)NC(=O)[C@H](CC(N)=O)NC(=O)[C@H](CCC(=O)O)NC(=O)[C@H](C)NC(=O)[C@H](CCCCN)NC(=O)[C@@H](NC(=O)[C@H](CO)NC(=O)[C@H](Cc1ccc(O)cc1)NC(=O)CN)[C@@H](C)O)C(=O)O` [EBA175_0255] (H-GYSTKAENKI-OH), the IC50 under setting [2] was 1840 nM. Still for that read-out and setting: next, `C[C@@H](O)[C@H](NC(=O)[C@H](Cc1ccccc1)NC(=O)[C@H](Cc1ccc(O)cc1)NC(=O)[C@@H](N)CO)C(=O)N[C@@H](Cc1ccc(O)cc1)C(=O)N[C@@H](CC(=O)O)C(=O)N[C@@H](CO)C(=O)N[C@@H](CCC(=O)O)C(=O)N[C@@H](CCC(=O)O)C(=O)N[C@@H](Cc1ccc(O)cc1)C(=O)O` [EBA175_1390] (H-SYFTYDSEEY-OH): 22300 nM. Turning to `CC(C)C[C@H](NC(=O)[C@H](CCCCN)NC(=O)[C@H](Cc1ccc(O)cc1)NC(=O)[C@@H](N)CC(N)=O)C(=O)NCC(=O)N[C@H](C(=O)N[C@@H](CCC(N)=O)C(=O)N[C@@H](Cc1ccc(O)cc1)C(=O)N[C@@H](Cc1ccccc1)C(=O)N[C@@H](Cc1ccccc1)C(=O)O)C(C)C` [CYRPA_218] (H-NYKLGVQYFF-OH), under setting [1], the IC50 worked out at 26300 nM. Regarding `CC[C@H](C)[C@H](NC(=O)[C@H](Cc1ccc(O)cc1)NC(=O)[C@@H]1CCCN1)C(=O)N[C@@H](CO)C(=O)N[C@@H](CCCCN)C(=O)N[C@@H](Cc1ccc(O)cc1)C(=O)NCC(=O)N[C@@H](CC(N)=O)C(=O)N[C@@H](CCCCN)C(=O)N[C@@H](CC(C)C)C(=O)O` [RIPR_0664] (H-PYISKYGNKL-OH), the IC50 under setting [1] was 180 nM. Still for that read-out and setting: next, `CSCC[C@H](NC(=O)[C@H](Cc1ccc(O)cc1)NC(=O)[C@@H](N)CC(N)=O)C(=O)NCC(=O)N[C@@H](CC(N)=O)C(=O)N1CCC[C@H]1C(=O)N[C@@H](Cc1c[nH]c2ccccc12)C(=O)N[C@H](C(=O)N[C@@H](CCC(=O)O)C(=O)O)[C@@H](C)O` [AMA1_104] (H-NYMGNPWTE-OH): 37900 nM. Same read-out and setting: as for `N=C(N)NCCC[C@H](NC(=O)CNC(=O)[C@H](Cc1ccccc1)NC(=O)[C@@H](N)CC(N)=O)C(=O)NCC(=O)N[C@@H](CCC(N)=O)C(=O)N[C@@H](CC(N)=O)C(=O)N[C@@H](Cc1ccc(O)cc1)C(=O)N[C@@H](Cc1c[nH]c2ccccc12)C(=O)O` [AMA1_020] (H-NFGRGQNYW-OH), the figure is 229 nM; as for `CC[C@H](C)[C@H](NC(=O)[C@@H](NC(=O)[C@H](Cc1ccccc1)NC(=O)[C@@H](N)CC(=O)O)C(C)C)C(=O)N[C@H](C(=O)N1CCC[C@H]1C(=O)N[C@@H](Cc1c[nH]cn1)C(=O)N[C@@H](Cc1ccc(O)cc1)C(=O)N[C@H](C(=O)N[C@@H](Cc1ccccc1)C(=O)O)[C@@H](C)O)[C@@H](C)CC` [RH5_172] (H-DFVIIPHYTF-OH), 289 nM; as for `CC[C@H](C)[C@H](NC(=O)[C@@H](N)CCSC)C(=O)N[C@H](C(=O)N1CCC[C@H]1C(=O)N[C@@H](Cc1ccccc1)C(=O)N[C@@H](Cc1c[nH]cn1)C(=O)N[C@@H](CCCCN)C(=O)N[C@@H](CCCCN)C(=O)N[C@@H](Cc1ccccc1)C(=O)O)[C@@H](C)CC` [CYRPA_001] (H-MIIPFHKKF-OH), 295 nM.
